In ChEMBL document CHEMBL1152696, “Interaction study of bioactive molecules with fibrinogen and human platelets determined by 1H NMR relaxation experiments” (Bioorg Med Chem, 2009):

Experiments:
[1] = Binding interaction with fibrinogen assessed as spin lattice relaxation rate enumerated as normalized affinity index at given concentration and fixed temperature by NMR relaxation experiment
Platelet = experiment: Binding interaction with platelet assessed as spin lattice relaxation rate enumerated as normalized affinity index at given concentration and fixed temperature by NMR relaxation experiment; format: cell-based

**Q.** Which results are given for `CC(C)NCC(O)c1ccc(O)c(O)c1` (centres undefined)?
**A.** [A]T,L [1]: 9730 /mol.dm'3; [A]T,L (10'-8 /no of units.cm'3) (Platelet): 4.47

**Q.** Which [A]T,L [1] does the source give for `CNC[C@H](O)c1ccc(O)c(O)c1` here?
**A.** 26900 /mol.dm'3

**Q.** And the [A]T,L (10'-8 /no of units.cm'3) (Platelet)?
**A.** 4.66
